Among the data in patent publication US4748165A, “Amidine derivatives” (Imperial Chemical Industries PLC, priority 1981, dated 1988) are toxic symptoms values, retold here.

The test system of one data set is conscious mice. Kind of data set: intravenous toxicity in conscious mice. The data set is classed as in vivo, mouse. The settings on record: intravenously, four conscious mice, one hundred times the dose giving approximate 50% inhibition of gastric secretion in the anaesthetised rat. As to the method:
(§1) No overt toxicity or side effects were noted during the rat or dog tests. The compounds N-cyano-5-(4-[2-propylguanidino]pyrimid-2-yl)valeramidino was administered intravenously to groups of two anaesthetised rats and four conscious mice at doses which were respectively ten times and one hundred times the dose, in mg./kg., which produced an approximate 50% inhibition of gastric secretion in the anaesthetised rat.

A further data set has as its system anaesthetised rats. Kind of data set: intravenous toxicity in anaesthetised rats. In kind it is in vivo. As to conditions: intravenously, two anaesthetised rats, ten times the dose giving approximate 50% inhibition of gastric secretion in the anaesthetised rat. How it is done:
as §1

As for `CCCN=C(N)Nc1ccnc(CCCCC(=N)NC#N)n1` [Example 2, N-cyano-5-(4-[2-propylguanidino]pyrimid-2-yl)valeramidine], the toxic symptoms result in the data set on conscious mice and in the data set with anaesthetised rats was “No toxic symptoms” in each case.
